This data set can be described thus: gradient 5% acetonitrile 3 min, to 50% in 2 min, to 85% in 15 min, held 3 min, 100 µL/min. The settings on record: column: Zorbax Extend-C18 2.1 x 50 mm; eluents: water / acetonitrile, 0.1% formic acid. An outline of the steps: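 Over 3 months, pure standards in mixtures of ~100 molecules were run by HPLC coupled to a quadrupole time-of-flight mass spectrometer in positive and negative ionization mode. The column was a Zorbax Extend-C18 (2.1 × 50 mm, 1.8 μm) at 100 μL/min, eluted with water and acetonitrile each holding 0.1% formic acid, with 40 μL dead and 900 μL dwell volumes. Retention time was determined from adduct peaks chosen by software and checked manually.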
The compound `COc1cccc(Cn2nc3c(S(=O)(=O)N4CCN(c5ccc(F)cc5)CC4)cccn3c2=O)c1` came in with an RP-LC retention time of 997 s.
As to `COc1ccc(C2(C(=O)N3CCCOCCNC(=O)[C@@H]4CCC[C@@H]43)CC2)cc1`, the RP-LC retention time turned out to be 711 s.
The compound `O=C(c1ccc(Br)o1)N1CCN(c2cc(-c3ccccc3)[nH]n2)CC1` showed an RP-LC retention time of 796 s.
The figure for `COc1ccccc1NC(=O)Cn1nc2cc(C)nc(-c3ccc(F)cc3)n2c1=O` is 851 s; for `CCc1noc(NC(C)=O)c1-c1ccc(C)c(S(=O)(=O)NCCC(C)C)c1` it is 856 s.
Next, `Cc1nc(-c2ccc(-c3noc(C(C)NC(=O)c4ccco4)n3)cc2)cs1` (centres undefined): 863 s.
Turning to `COc1ccccc1-n1ccn(Cc2nc(-c3cccc(F)c3)no2)c(=O)c1=O`, the RP-LC retention time was 861 s.
Regarding `O=C(Nc1nnc(SCc2ccc(Br)cc2)s1)c1ccccc1F`, the RP-LC retention time is 1020 s.
As to `Cc1nnc2c(N3CCN(c4ccccn4)CC3)nc3ccc(C(=O)c4ccccc4)cc3n12`, the RP-LC retention time stood at 672 s.
In turn, `Cc1ccoc1C(=O)Nc1ccc(C(N)=O)cc1` had an RP-LC retention time of 629 s.
`Cc1noc(C)c1S(=O)(=O)N1CCC2(CC1)CC(CCOc1ccc(F)cc1)CCO2` (centres undefined): the RP-LC retention time amounted to 1220 s.
Next, `C=CCNC(=O)c1cn(-c2ncccc2-c2nc(C(C)(C)C)no2)cn1`: 776 s.
For `CC(C)c1ccc(NC(=O)CN2C(=O)CC(C)(C)S(=O)(=O)c3ccccc32)cc1`, the RP-LC retention time came out at 898 s.
Next, `COc1ccc(C(=O)Nc2nc(-c3ccc4c(c3)NC(=O)CO4)c(C)s2)cc1OC`: 814 s; `Cc1cc(Cl)ccc1NC(=O)c1cc2n(n1)CCCC2`: 975 s.
As to `COc1ccc(OC)c(NC(=O)C2CCCN(c3nnc4ccccn34)C2)c1` (centres undefined), the RP-LC retention time was determined as 667 s.
Next, `CCn1c(=O)c2ccccc2n(Cc2nc(-c3cccc(C)c3)no2)c1=O`: 1070 s; `CCCN(C)C(=O)CCC1CCN(c2cc(NC3CC3)ncn2)CC1`: 648 s; `CC1(C)CC2CC(C)(CN2c2nc(-c3ccc([N+](=O)[O-])cc3)nc3ccccc23)C1` (centres undefined): 1050 s.
In the case of `O=c1c2cc3c(cc2nc(SCc2nc(-c4ccccc4)no2)n1Cc1ccncc1)OCO3`, the RP-LC retention time worked out at 776 s.
`O=C(Cn1nc2c(N3CCCCCC3)nccn2c1=O)NCCC1=CCCCC1` registered an RP-LC retention time of 784 s.
The figure for `O=C(NC1CC1)c1ccc(OCC2CCN(C(=O)Cc3ccc(F)cc3)CC2)cc1` is 787 s; for `O=C(CN1C(=O)c2cccnc2Sc2ccccc21)NCCc1c[nH]c2ccccc12` it is 773 s.
Next, `Cc1cc(N2CCN(S(=O)(=O)c3ccc(Cl)c(Cl)c3)CC2)nc(NC2CCCCC2)n1`: 922 s; `COc1cccc(C(=O)Nc2cc(-c3ccccn3)no2)c1`: 788 s.
Compound `CCOc1ccc(-c2nc(C3CC(=O)N(c4ccc(F)c(Cl)c4)C3)no2)cc1` (centres undefined) gave an RP-LC retention time of 1170 s.
Next, `CCNC(=O)N1CCCC(c2nn(C)c(=O)n2C2CCCC2)C1` (centres undefined): 630 s; `CCC1(O)CCC12CCN(C(=O)c1cccs1)CC2` (centres undefined): 718 s; `Cc1csc(-c2cc(S(=O)(=O)NCc3ccc(Br)cc3)c(C)s2)n1`: 1050 s.
Next, `CN1C(=O)Cc2cc(C(=O)NCc3ccc(F)c(Cl)c3)ccc21`: 766 s.
The compound `O=C1COc2ccc(-c3csc(NC(=O)C4CCCCC4)n3)cc2N1` displayed an RP-LC retention time of 884 s.
Next, `C(=C\c1ccc(/C=C/c2ccccc2)nn1)/c1ccccc1`: 1140 s; `CNC(=O)c1noc([C@@H]2CC(F)(F)CN2CC2CC2)n1`: 724 s; `Brc1ccc(CN2CCc3nc(N4CCN(c5ccccn5)CC4)ncc3C2)cc1`: 574 s.
The figure for `Cc1ccc2c(c1)OCC(=O)N2Cc1nc(-c2ccc(Cl)cc2)no1` is 1140 s; for `COc1ccc(NC(=O)Cn2nc3cc(C)nc(Nc4ccc(F)c(C)c4)n3c2=O)cc1` it is 1070 s.
The compound `CCOC(=O)c1nc(N2CCOCC2)c2ccccc2n1` showed an RP-LC retention time of 626 s.
On to `CCOc1ccccc1NC(=O)N1CCCC1c1cc(CC)no1` (centres undefined), for which the RP-LC retention time worked out at 833 s.
Next, `O=C1NCCCCCCN(C(=O)Nc2ccccc2F)[C@H]2CCCC[C@@H]12`: 846 s.
The figure for `COc1ccc(NS(=O)(=O)c2cc3n(c2)CCCN(C(C)C)C3=O)cc1Cl` is 773 s; for `Cn1cnc(S(=O)(=O)N2CC(Oc3ccc(-c4noc(C5CC5)n4)cc3)C2)c1` it is 794 s.
The figure for `COC(=O)c1ccc(C(=O)Nc2nnc(-c3cccs3)o2)cc1` is 710 s.
Regarding `CCCC(=O)Nc1ccc2c(c1)CCC(=O)N2CCOC`, the RP-LC retention time was 654 s.
Next, `Cc1cccc(-n2c(=O)c3c(cc(C)n3C)n(CC(=O)Nc3ccc(Br)cc3F)c2=O)c1`: 963 s; `CCn1c(=O)c(=O)n(CC(=O)NCCc2ccco2)c2cccnc21`: 638 s; `O=C(NCCc1c[nH]c2ccc(Cl)cc12)Nc1ccccc1`: 879 s.
`CC(=O)N1CCc2cc(N3CC(C(=O)Nc4ccc(C)cc4F)CC3=O)ccc21` (centres undefined) came in with an RP-LC retention time of 717 s.
Next, `O=C(CSc1nnc2c3ccccc3nc(-c3ccco3)n12)NCc1nc2ccccc2[nH]1`: 625 s; `CSc1c(N(C)C)c(=O)c1=S`: 756 s; `CC1(C)S[C@@H]2[C@H](NC(=O)Cc3ccccc3)C(=O)N2C1C(=O)O` (some centres undefined): 732 s.
Next, `COc1ccc(C)cc1NC(=O)N1C[C@@H]2C[C@H]1C[C@@H]2NC(=O)c1cccs1`: 819 s; `O=C(NCc1cccc(F)c1)N1CCC(OC2CCN(Cc3ccccc3)CC2)CC1`: 589 s; `CCCNC(=O)C1CC(=O)N(c2ccc3c(c2)CCN3C(C)=O)C1` (centres undefined): 621 s.
Take `CS(=O)(=O)N1CCC(C(=O)NCC2CCN(C(=O)Oc3ccccc3)CC2)CC1`: the RP-LC retention time was determined as 663 s.
The figure for `Cc1cc2nn(CC(=O)Nc3ccccc3)c(=O)n2c(Nc2ccccc2)n1` is 965 s; for `COCCn1c(SCc2nc(-c3ccc(Cl)cc3)no2)nc2cc3c(cc2c1=O)OCO3` it is 1180 s.
The figure for `O=C(Cn1cccc1-c1nnc(C2CCC2)o1)NCc1ccccc1Cl` is 907 s.
Take `COc1cc(N)c(Cl)cc1C(=O)N[C@@H]1CCN(CCCOc2ccc(F)cc2)C[C@@H]1OC`: the RP-LC retention time came out at 772 s.
Next, `Cc1ccc(Cl)cc1NS(=O)(=O)c1cc(-c2nc(C(C)(C)C)cs2)cs1`: 1330 s; `CCC(=O)N1CCc2cc(-c3ccc(C(=O)NCCCN4CCCC4=O)cc3)ccc21`: 712 s; `O=[N+]([O-])c1cccc(S(=O)(=O)Nc2ccc(O)c(-c3c(O)ccc4ccccc34)c2)c1`: 801 s.
With `COc1ccc(C2CC(=O)c3cnc(N4CCN(c5ccccn5)CC4)nc3C2)cc1OC` (centres undefined), the RP-LC retention time stood at 633 s.
Next, `O=c1oc2cc(O)cc(O)c2c2c1CCCC2`: 708 s; `CCc1ccc(Oc2nccnc2N2CCC(C(=O)NC(C)c3ccccc3)CC2)cc1` (centres undefined): 1120 s.
The figure for `CCc1cc(=O)n(CC(=O)Nc2ccc(F)cc2)c(N2CCOCC2)n1` is 714 s.
`CCOCC1CCC2(CCN(C(=O)Cn3c(=O)oc4cc(Cl)ccc43)CC2)O1` (centres undefined) came in with an RP-LC retention time of 900 s.
On to `Cc1ccccc1NC(=O)Cn1nc2c(Oc3cccc(F)c3)nccn2c1=O`, for which the RP-LC retention time worked out at 846 s.
The figure for `Cc1ccc2nc3sc(C(=O)N4CCN(c5ccccn5)CC4)cc3cc2c1` is 664 s; for `CCOCC(=O)N1CCCN(C2=NS(=O)(=O)C(c3ccc(C)c(C)c3)=C2C)CC1` it is 795 s.
The figure for `Cc1ccc(N2CC(c3noc(-c4ccccc4)n3)CC2=O)cc1` (centres undefined) is 819 s; for `COC(=O)c1ccc(-c2nc3cnccn3c2Nc2cccc(OC)c2)cc1` it is 846 s.
Next, `O=C(c1cccnc1)N1CCCN(c2nnc3ccc(Cl)cn23)CC1`: 559 s; `Cc1cc(C)c(NC(=O)Cn2cnc3nc(N4CCCC(C(=O)NC(C)C)C4)sc3c2=O)c(C)c1` (centres undefined): 728 s.
Compound `O=c1c2sccc2n(Cc2nc(-c3ccccc3)no2)c(=O)n1Cc1ccc(F)cc1` returned an RP-LC retention time of 1040 s.
Compound `Cc1cccc(CC(=O)Nc2c(C(=O)N3CCN(c4ccccn4)CC3)oc3ccccc23)c1` showed an RP-LC retention time of 705 s.
Consider `O=C(CCc1c[nH]c2ccccc12)Nc1ccc(-c2nnc3n2CCCC3)cc1`, for which the RP-LC retention time worked out at 704 s.
The figure for `O=c1ccc(-c2ccccc2)nn1Cc1nc(-c2ccc(Br)cc2)no1` is 1100 s.
`Cc1ccc(-c2noc(CN3C(=O)COc4ccc(C(C)(C)C)cc43)n2)cc1` came in with an RP-LC retention time of 1310 s.
`N#Cc1cccc(NC(=O)Cn2cccc(-c3nc(-c4ccc(Br)cc4)no3)c2=O)c1` registered an RP-LC retention time of 958 s.

These data come from the METLIN SMRT retention time set (Domingo-Almenara et al. 2019).
